Source: patent publication US20150105252A1, “SUBSTITUTED PYRAZOLES AS HERBICIDES” (E I DU PONT DE NEMOURS AND COMPANY, priority 2013, published 2015)

Tests used:
barley [1] = assay: Test C postemergence; format: in vivo, Hordeum vulgare
barley [2] = assay: Test C postemergence; format: in vivo, Hordeum vulgare; conditions: scale 0 to 100
canarygrass = assay: Test C postemergence; format: in vivo, Phalaris minor; conditions: for Canarygrass plant response rating: scale 0 to 100
Text: (§1) Seeds of plant species selected from blackgrass (Alopecurus myosuroides), ryegrass, Italian (Italian ryegrass, Lolium multiflorum), wheat (winter wheat, Triticum aestivum), galium (catchweed bedstraw, Galium aparine), corn (Zea mays), crabgrass, large (large crabgrass, Digitaria sanguinalis), foxtail, giant (giant foxtail, Setaria faberii), johnsongrass (Sorghum halepense), lambsquarters (Chenopodium album), morningglory (Ipomoea coccinea), nutsedge, yellow (yellow nutsedge, Cyperus esculentus), pigweed (redroot pigweed, Amaranthus retroflexus), ragweed (common ragweed, Ambrosia elation), soybean (Glycine max), barnyardgrass (Echinochloa crus-galli), oilseed rape (Brassica napus), waterhemp (common waterhemp, Amaranthus rudis), oat, wild (wild oat, Avena fatua), kochia (Kochia scoparia), Surinam grass (Brachiaria decumbens), foxtail, green (green foxtail, Setaria viridis), goosegrass (Eleusine indica), bromegrass, downy (downy bromegrass, Bromus tectorum), nightshade (eastern black nightshade, Solanum ptycanthum), cocklebur (common cocklebur, Xanthium strumarium), cupgrass, woolly (woolly cupgrass, Eriochloa villosa), bermudagrass (Cynodon dactylon), sunflower, (common oilseed sunflower, Helianthus annuus), Russian thistle (Salsola kali), and velvetleaf (Abutilon theophrasti) were planted into a blend of loam soil and sand and treated preemergence with test chemicals formulated in a non-phytotoxic solvent mixture which included a surfactant.
(§2) At the same time, plants selected from these crop and weed species and also chickweed (common chickweed, Stellaria media), canarygrass (littleseed canarygrass, Phalaris minor), and deadnettle (henbit deadnettle, Lamium amplexicaule), were planted in pots containing Redi-Earth® planting medium (Scotts Company, 14111 Scottslawn Road, Marysville, Ohio 43041) comprising spaghnum peat moss, vermiculite, wetting agent and starter nutrients and treated with postemergence applications of test chemicals formulated in the same manner. Plants ranged in height from 2 to 18 cm (1- to 4-leaf stage) for postemergence treatments. Treated plants and controls were maintained in a greenhouse for 13 to 15 days, after which time all species were compared to controls and visually evaluated. Plant response ratings, summarized in Table C, are based on a scale of 0 to 100 where 0 is no effect and 100 is complete control. A dash (-) response means no test result.

oat, wild = assay: Test C preemergence; format: in vivo, Avena fatua; conditions: for Plant response rating (scale of 0 to 100), Oat, Wild: Preemergence, 250 g ai/ha; for Oat, Wild plant response rating / Plant response rating, Oat, Wild: preemergence; for Plant response rating, Oat, Wild: 62 g ai/ha, scale 0 to 100, 0 = no effect, 100 = complete control
Text: as §1, §2

Russian thistle = assay: Test D postemergence; format: in vivo, Salsola kali; conditions: scale 0 to 100; for Plant response rating, Russian Thistle: 16 g ai/ha
Text: Seeds of plant species selected from bluegrass (annual bluegrass, Poa annua), blackgrass (Alopecurus myosuroides), canarygrass (littleseed canarygrass, Phalaris minor), chickweed (common chickweed, Stellaria media), galium (catchweed bedstraw, Galium aparine), bromegrass, downy (downy bromegrass, Bromus tectorum), field poppy (Papaver rhoeas), field violet (Viola arvensis), foxtail, green (green foxtail, Setaria viridis), deadnettle (henbit deadnettle, Lamium amplexicaule), ryegrass, Italian (Italian ryegrass, Lolium multiflorum), kochia (Kochia scoparia), lambsquarters (Chenopodium album), oilseed rape (Brassica napus), pigweed (redroot pigweed, Amaranthus retroflexus), chamomile (scentless chamomile, Matricaria inodora), speedwell (bird's-eye speedwell, Veronica persica), barley, spring (spring barley, Hordeum vulgare), wheat, spring (spring wheat, Triticum aestivum), buckwheat, wild (wild buckwheat, Polygonum convolvulus), mustard, wild (wild mustard, Sinapis arvensis), oat, wild (wild oat, Avena fatua), radish, wild (wild radish, Raphanus raphanistrum), windgrass (Apera spica-venti), Russian thistle (Salsola kali), barley, winter (winter barley, Hordeum vulgare), and wheat, winter (winter wheat, Triticum aestivum) were planted into a silt loam soil and treated preemergence with test chemicals formulated in a non-phytotoxic solvent mixture which included a surfactant.
At the same time, these species were planted in pots containing Redi-Earth® planting medium (Scotts Company, 14111 Scottslawn Road, Marysville, Ohio 43041) comprising spaghnum peat moss, vermiculite, wetting agent and starter nutrients and treated with postemergence applications of the test chemicals formulated in the same manner. Plants ranged in height from 2 to 18 cm (1- to 4-leaf stage). Treated plants and controls were maintained in a controlled growth environment for 14 to 21 days after which time all species were compared to controls and visually evaluated. Plant response ratings, summarized in Table D, are based on a scale of 0 to 100 where 0 is no effect and 100 is complete control. A dash (-) response means no test result.

wild poinsettia = assay: Test F preemergence; format: in vivo, Euphorbia heterophylla
Text: (§3) Seeds of plant species selected from corn (Zea mays), soybean (Glycine max), velvetleaf (Abutilon theophrasti), lambsquarters (Chenopodium album), wild poinsettia (Euphorbia heterophylla), pigweed, palmer (palmer pigweed, Amaranthus palmeri), common waterhemp (Amaranthus rudis), surinam grass (Brachiaria decumbens), large crabgrass (Digitaria sanguinalis), crabgrass, Brazil (Brazilian crabgrass, Digitaria horizontalis), fall panicum (Panicum dichotomiflorum), giant foxtail (Setaria faberii), green foxtail (Setaria viridis), goosegrass (Eleusine indica), johnsongrass (Sorghum halepense), common ragweed (Ambrosia elation), barnyardgrass (Echinochloa crus-galli), southern sandbur (Cenchrus echinatus), arrowleaf sida (Sida rhombifolia), Italian ryegrass (Lolium multiflorum), dayflower, VA (Virginia (VA) dayflower, Commelina virginica), field bindweed (Convolvulus arvensis), cocklebur (common cocklebur, Xanthium strumarium), morningglory (Ipomoea coccinea), nightshade (eastern black nightshade, Solanum ptycanthum), kochia (Kochia scoparia), yellow nutsedge (Cyperus esculentus), and hairy beggarticks (Bidens pilosa), were planted into a silt loam soil and treated preemergence with test chemicals formulated in a non-phytotoxic solvent mixture which included a surfactant.
(§4) At the same time, plants from these crop and weed species and also horseweed (Canada horseweed, Conyza canadensis), smartweed (ladysthumb smartweed, Polygonum persicaria), waterhemp_RES1, (ALS & Triazine resistant common waterhemp, Amaranthus rudis), and waterhemp_RES2, (ALS & HPPD resistant common waterhemp, Amaranthus rudis) were treated with postemergence applications of test chemicals formulated in the same manner. Plants ranged in height from 2 to 18 cm for postemergence treatments (1- to 4-leaf stage). Treated plants and controls were maintained in a greenhouse for 14 to 21 days, after which time all species were compared to controls and visually evaluated. Plant response ratings, summarized in Table F, are based on a scale of 0 to 100 where 0 is no effect and 100 is complete control. A dash (-) response means no test result.

Italian ryegrass = assay: Test F preemergence; format: in vivo, Lolium multiflorum
Text: as §3, §4

[3] = 125 g ai/ha, scale 0 to 100, 0 no effect, 100 complete control
[4] = 250 g ai/ha, scale 0 to 100 (0 no effect, 100 complete control)
[5] = postemergence, 250 g ai/ha, scale 0 to 100 (0 no effect, 100 complete control)
[6] = postemergence, 62 g ai/ha, scale 0 to 100, 0 no effect, 100 complete control
[7] = postemergence, 125 g ai/ha, scale 0 to 100, 0 no effect, 100 complete control
[8] = 31 g ai/ha, scale 0 to 100 (0 no effect, 100 complete control), 13 to 15 days
[9] = 125 g ai/ha, scale 0 to 100, 0 is no effect, 100 is complete control
[10] = Preemergence, 31 g ai/ha, scale 0 to 100
[11] = Preemergence, 62 g ai/ha, scale 0 to 100
[12] = Preemergence, 125 g ai/ha, scale 0 to 100
[13] = preemergence, 8 g ai/ha, scale 0 to 100, 100 is complete control
[14] = preemergence, 16 g ai/ha, scale 0 to 100, 100 is complete control
[15] = Preemergence, 250 g ai/ha, scale 0 to 100

SMILES	Plant response rating, Barley (barley [1]; [4])	Barley plant response rating (barley [2]; Postemergence, 31 g ai/ha)	Canarygrass plant response rating (canarygrass; Postemergence, 31 g ai/ha)	Plant response rating, Canarygrass (canarygrass; [5])	Plant response rating, Canarygrass (canarygrass; [6])	Plant response rating, Canarygrass (canarygrass; [7])	Plant response rating (scale of 0 to 100), Oat, Wild (oat, wild)	Oat, Wild plant response rating (oat, wild; [8])	Plant response rating, Oat, Wild (oat, wild; 13 to 15 days)	Oat, Wild plant response rating (oat, wild; [9])	Plant response rating, Russian Thistle (Russian thistle; Postemergence)	Russian Thistle plant response rating (Russian thistle; Postemergence, 31 g ai/ha)	Russian Thistle plant response rating (Russian thistle; Postemergence, 125 g ai/ha)	Russian Thistle plant response rating (Russian thistle; postemergence, 62 g ai/ha)	Plant response rating, Wild Poinsettia (wild poinsettia; [11])	Plant response rating, Wild Poinsettia (wild poinsettia; [12])	Plant response rating, Italian Ryegrass (Italian ryegrass; [11])	Plant response rating, Italian Ryegrass (Italian ryegrass; [12])	further results
CCc1cc(C(=O)NCC(F)(F)F)nn1Cc1cccc(OC(F)(F)F)c1 [Compound 20]	30	15	5	15	10	15													Plant response rating, Barley (barley [1]; [3]): 30
CCCNC(=O)c1cc(CC)n(Cc2cccc(OC(F)(F)F)c2)n1 [Compound 27]	30	10	5	10	5	10													Plant response rating, Barley (barley [1]; [3]): 20
CCc1cc(C(=O)NOC(C)C)nn1Cc1cccc(OC(F)(F)F)c1 [Compound 70]	25	0	0	60	5	15	65	5	10	50	0	80	85	80					Russian Thistle plant response rating (Russian thistle; Postemergence, 250 g ai/ha): 90
CCONC(=O)c1cc(CC)n(Cc2cccc(OC(F)(F)F)c2)n1 [Compound 72]	10	0	5	30		20	85	30	60	80									Barley plant response rating (barley [2]; postemergence, 62 g ai/ha): 5; Canarygrass plant response rating (canarygrass; postemergence, 62 g ai/ha): 10
Cc1cc(C(=O)NCC(F)(F)F)nn1Cc1ccnc(C(F)(F)F)c1 [Compound 74]	5	0	0	5		0	95	0	40	85	0	0	60	0					Barley plant response rating (barley [2]; postemergence, 62 g ai/ha): 0; Canarygrass plant response rating (canarygrass; postemergence, 62 g ai/ha): 0
CCc1cc(C(=O)NC2CC2)nn1Cc1ccnc(C(F)(F)F)c1 [Compound 76]											5	5	10	5					Russian Thistle plant response rating (Russian thistle; Postemergence, 250 g ai/ha): 40
CCc1cc(-c2ccc(C(F)(F)F)cc2)nn1Cc1ccnc(C(F)(F)F)c1 [Compound 110]															50	80	20	60	Plant response rating, Wild Poinsettia (wild poinsettia; [10]): 35; Plant response rating, Wild Poinsettia (wild poinsettia; [13]): 25; Plant response rating, Wild Poinsettia (wild poinsettia; [14]): 25; Plant response rating, Italian Ryegrass (Italian ryegrass; [10]): 20; Plant response rating, Italian Ryegrass (Italian ryegrass; [13]): 0; Plant response rating, Italian Ryegrass (Italian ryegrass; [14]): 0
CCCc1cc(C(=O)NC(C)C)nn1Cc1cc(C(F)(F)F)nn1C [Compound 201]															5	25	30	75	Plant response rating, Wild Poinsettia (wild poinsettia; [15]): 65; Plant response rating, Wild Poinsettia (wild poinsettia; [14]): 0; Plant response rating, Italian Ryegrass (Italian ryegrass; [15]): 75; Plant response rating, Italian Ryegrass (Italian ryegrass; [14]): 0
CCc1cc(C(=O)NCC(F)(F)F)nn1Cc1ccnc(Br)c1 [Compound 224]															60	65	20	0	Plant response rating, Wild Poinsettia (wild poinsettia; [15]): 85; Plant response rating, Italian Ryegrass (Italian ryegrass; [15]): 60
